In PubChem BioAssay (NCI):
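These data come from cells grown in 96-well plates and exposed to compound for 48 hours at five concentrations. Here, GI50 denotes the concentration required for 50% inhibition of growth. TGI is the concentration that stops growth completely.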

Key:
Assay in all cases: NCI tumour cell line growth inhibition, 48 h
K-562 leukemia = tested on: K-562 leukemia
LOX IMVI melanoma = tested on: LOX IMVI melanoma
HOP-92 NSCLC = tested on: HOP-92 NSCLC
SW-620 colon = tested on: SW-620 colon
SK-MEL-5 melanoma = tested on: SK-MEL-5 melanoma
A498 renal = tested on: A498 renal
CAKI-1 renal = tested on: CAKI-1 renal
SF-295 CNS = tested on: SF-295 CNS
OVCAR-8 ovarian = tested on: OVCAR-8 ovarian
PC-3 prostate = tested on: PC-3 prostate

Q: For `CN(CCS(=O)(=O)N1C(=O)C2CCCN2C(=O)[C@@H]1Cc1ccccc1)C(=O)OCc1ccccc1` (stereo partly drawn), which TGI (K-562 leukemia) is on record?
A: > 100 µM

Q: What about the TGI (LOX IMVI melanoma) of the same compound?
A: > 100 µM

Q: And the TGI (HOP-92 NSCLC)?
A: > 100 µM

Q: And the TGI (SW-620 colon)?
A: > 100 µM

Q: And the TGI (SK-MEL-5 melanoma)?
A: > 100 µM

Q: And the TGI (A498 renal)?
A: > 100 µM

Q: What about the TGI (CAKI-1 renal) of the same compound?
A: > 100 µM

Q: And the TGI (SF-295 CNS)?
A: > 100 µM

Q: And the TGI (OVCAR-8 ovarian)?
A: > 100 µM

Q: `CCCCCCCCCCCCCCCC1=NCC[N+]1(CCO)CCO` was tested. Which GI50 (PC-3 prostate) did it give?
A: 1.42 µM

Q: And the TGI (PC-3 prostate)?
A: 3.3 µM

Q: And the GI50 (K-562 leukemia)?
A: 1.36 µM

Q: What about the TGI (K-562 leukemia) of the same compound?
A: 2.82 µM

Q: What about the GI50 (SW-620 colon) of the same compound?
A: 1.76 µM

Q: And the TGI (SW-620 colon)?
A: 3.54 µM

Q: And the GI50 (SK-MEL-5 melanoma)?
A: 4.39 µM

Q: What about the TGI (SK-MEL-5 melanoma) of the same compound?
A: 16.1 µM

Q: What about the GI50 (A498 renal) of the same compound?
A: 7.79 µM

Q: And the TGI (A498 renal)?
A: 21.6 µM

Q: And the GI50 (CAKI-1 renal)?
A: 3.58 µM

Q: And the TGI (CAKI-1 renal)?
A: 14.6 µM

Q: What about the GI50 (SF-295 CNS) of the same compound?
A: 10.5 µM

Q: What about the TGI (SF-295 CNS) of the same compound?
A: 26.3 µM

Q: What about the GI50 (OVCAR-8 ovarian) of the same compound?
A: 3.03 µM

Q: What about the TGI (OVCAR-8 ovarian) of the same compound?
A: 8.36 µM

Q: How did the TGI (PC-3 prostate) turn out when `O=C(O)CSc1n[nH]c(=O)[nH]c1=O` was run?
A: > 100 µM

Q: And the TGI (K-562 leukemia)?
A: > 100 µM

Q: What about the TGI (LOX IMVI melanoma) of the same compound?
A: > 100 µM

Q: What about the TGI (SW-620 colon) of the same compound?
A: > 100 µM

Q: And the TGI (SK-MEL-5 melanoma)?
A: > 100 µM

Q: What about the TGI (A498 renal) of the same compound?
A: > 100 µM

Q: What about the TGI (CAKI-1 renal) of the same compound?
A: > 100 µM

Q: And the TGI (SF-295 CNS)?
A: > 100 µM

Q: And the TGI (OVCAR-8 ovarian)?
A: > 100 µM

Q: For `COc1ccc(C2(Cl)c3ccccc3N(c3ccccc3)c3ccccc32)cc1`, which GI50 (PC-3 prostate) is on record?
A: 0.238 µM

Q: What about the TGI (PC-3 prostate) of the same compound?
A: 4.11 µM

Q: What about the GI50 (K-562 leukemia) of the same compound?
A: 0.335 µM

Q: What about the TGI (K-562 leukemia) of the same compound?
A: 12 µM

Q: And the GI50 (LOX IMVI melanoma)?
A: 0.282 µM

Q: And the TGI (LOX IMVI melanoma)?
A: 1.32 µM

Q: What about the GI50 (HOP-92 NSCLC) of the same compound?
A: 1.88 µM

Q: What about the TGI (HOP-92 NSCLC) of the same compound?
A: 7.13 µM

Q: And the GI50 (SW-620 colon)?
A: 0.37 µM

Q: And the TGI (SW-620 colon)?
A: 1.69 µM

Q: What about the GI50 (SK-MEL-5 melanoma) of the same compound?
A: 0.266 µM

Q: And the TGI (SK-MEL-5 melanoma)?
A: 1.31 µM

Q: And the GI50 (CAKI-1 renal)?
A: 1.68 µM

Q: What about the TGI (CAKI-1 renal) of the same compound?
A: 12.5 µM

Q: What about the GI50 (SF-295 CNS) of the same compound?
A: 0.301 µM

Q: And the TGI (SF-295 CNS)?
A: 1.85 µM

Q: What about the GI50 (OVCAR-8 ovarian) of the same compound?
A: 0.203 µM

Q: What about the TGI (OVCAR-8 ovarian) of the same compound?
A: 2.7 µM

Q: Which TGI (K-562 leukemia) does the source give for `O=C1[C@H]2ON(c3ccccc3)C(c3ccc([N+](=O)[O-])cc3)[C@H]2C(=O)N1c1ccc(Cc2ccc(N3C(=O)[C@@H]4ON(c5ccccc5)C(c5ccc([N+](=O)[O-])cc5)[C@@H]4C3=O)cc2)cc1` (stereo partly drawn) here?
A: > 100 µM

Q: What about the TGI (LOX IMVI melanoma) of the same compound?
A: > 100 µM

Q: And the TGI (HOP-92 NSCLC)?
A: 99 µM

Q: What about the TGI (SW-620 colon) of the same compound?
A: > 100 µM

Q: And the TGI (SK-MEL-5 melanoma)?
A: > 100 µM

Q: And the TGI (A498 renal)?
A: > 100 µM

Q: And the TGI (CAKI-1 renal)?
A: > 100 µM

Q: What about the TGI (SF-295 CNS) of the same compound?
A: > 100 µM

Q: What about the TGI (OVCAR-8 ovarian) of the same compound?
A: > 100 µM

Q: For `CC1=N/C(=C/c2ccc3c(c2)OCO3)C(=O)O1`, which TGI (K-562 leukemia) is on record?
A: > 100 µM

Q: What about the TGI (LOX IMVI melanoma) of the same compound?
A: > 100 µM

Q: And the TGI (HOP-92 NSCLC)?
A: > 100 µM

Q: What about the TGI (SW-620 colon) of the same compound?
A: > 100 µM

Q: And the TGI (SK-MEL-5 melanoma)?
A: > 100 µM

Q: And the TGI (A498 renal)?
A: > 100 µM

Q: What about the TGI (CAKI-1 renal) of the same compound?
A: > 100 µM

Q: And the TGI (OVCAR-8 ovarian)?
A: > 100 µM

Q: With `CCC[C@H]1O[C@@H]2CC(=O)O[C@@H]2C2=C1C(=O)C=CC2=O` as the compound, how does the TGI (K-562 leukemia) read?
A: > 46.5 µM

Q: What about the TGI (LOX IMVI melanoma) of the same compound?
A: 39.8 µM

Q: What about the TGI (HOP-92 NSCLC) of the same compound?
A: 8.31 µM

Q: What about the TGI (SW-620 colon) of the same compound?
A: 35.7 µM

Q: What about the TGI (SK-MEL-5 melanoma) of the same compound?
A: 36 µM

Q: And the TGI (A498 renal)?
A: > 70.3 µM

Q: What about the TGI (CAKI-1 renal) of the same compound?
A: 34.1 µM

Q: And the TGI (SF-295 CNS)?
A: 55.8 µM

Q: What about the TGI (OVCAR-8 ovarian) of the same compound?
A: > 74.9 µM

Q: Which TGI (K-562 leukemia) does the source give for `CC(C)(C)C1=CC(=C(P(=O)(O)O)P(=O)(O)O)C=C(C(C)(C)C)C1=O` here?
A: > 50 µM

Q: And the TGI (LOX IMVI melanoma)?
A: > 50 µM

Q: And the TGI (HOP-92 NSCLC)?
A: > 50 µM

Q: And the TGI (SW-620 colon)?
A: > 50 µM

Q: And the TGI (SK-MEL-5 melanoma)?
A: > 50 µM

Q: What about the TGI (A498 renal) of the same compound?
A: > 50 µM

Q: And the TGI (CAKI-1 renal)?
A: > 50 µM

Q: And the TGI (SF-295 CNS)?
A: > 50 µM

Q: And the TGI (OVCAR-8 ovarian)?
A: > 50 µM

Q: For `C=C[C@@H](C)[C@]1(C(=O)OC)CCCC12OCCO2`, which TGI (K-562 leukemia) is on record?
A: > 100 µM

Q: And the TGI (LOX IMVI melanoma)?
A: > 100 µM

Q: And the TGI (HOP-92 NSCLC)?
A: > 100 µM

Q: And the TGI (SK-MEL-5 melanoma)?
A: > 100 µM

Q: And the TGI (A498 renal)?
A: > 100 µM

Q: What about the TGI (CAKI-1 renal) of the same compound?
A: > 100 µM

Q: What about the TGI (SF-295 CNS) of the same compound?
A: > 100 µM

Q: What about the TGI (OVCAR-8 ovarian) of the same compound?
A: > 100 µM

Q: Which results are given for `Cc1onc(-c2ccccc2)c1C(=O)N/N=C/c1cc(Cl)cc(Cl)c1O`?
A: GI50 (PC-3 prostate): 3.93 µM; TGI (PC-3 prostate): 32.6 µM; GI50 (K-562 leukemia): 4.58 µM; TGI (K-562 leukemia): 55.9 µM; GI50 (LOX IMVI melanoma): 2.93 µM; TGI (LOX IMVI melanoma): 32.3 µM; GI50 (SW-620 colon): 6.81 µM; TGI (SW-620 colon): > 100 µM; GI50 (SK-MEL-5 melanoma): 3.47 µM; TGI (SK-MEL-5 melanoma): 21.1 µM; GI50 (A498 renal): 15 µM; TGI (A498 renal): 58.2 µM; GI50 (CAKI-1 renal): 1.84 µM; TGI (CAKI-1 renal): 10.5 µM; GI50 (SF-295 CNS): 2.05 µM; TGI (SF-295 CNS): 11.3 µM; GI50 (OVCAR-8 ovarian): 3.59 µM; TGI (OVCAR-8 ovarian): > 100 µM
